In US10800741B2 (ANCUREALL PHARMACEUTICAL (SHANGHAI) CO., LTD., priority 2017, dated 2020):
Where two headings read alike, the source gives them in different places.

Assays:
Test in all cases: KINOMEscan in vitro binding to 468 labeled protein kinases
[1] = target: T1, protein kinases (Homo sapiens, UniProt P00519, E255K); conditions: ABL1(E255K)-phosphorylated, read-out: Test compound/solvent control (%)
T1 construct: purchased Discovery X company (USA), KINOMEscan screening platform
Protocol: (§1) Test Example 6 Determination of Binding Affinity of the Present Compounds on Protein Kinases In Vitro
(§2) KINOMEscan screening platform of Discovery X company (USA) was used to identify the binding targets of the present compounds to protein kinases. Compound 66 of the present invention was dissolved in DMSO (Sigma Aldrich) at concentrations of 1000 nM, 10 nM and 1 nM, and then was subjected to in vitro binding reaction with 468 labeled protein kinases. Two samples were taken in parallel for each assay sample.
(§3) The lower the percentage of the test compound to the solvent control, the stronger the binding affinity of the test compound to the protein kinase in vitro.

[2] = target: T2, protein kinases (Homo sapiens, UniProt P00519, H396P); conditions: read-out: Test compound/solvent control (%); for remaining binding at 0.001 µM: 1 nM; for remaining binding at 0.01 µM: 10 nM; for remaining binding at 1 µM: 1000 nM
T2 construct: purchased Discovery X company (USA), KINOMEscan screening platform
Protocol: as §1, §2, §3

[3] = target: T3, protein kinases (Homo sapiens, UniProt P00533, DEL746-750); conditions: EGFR(E746-A750de1)
T3 construct: purchased Discovery X company (USA), KINOMEscan screening platform
Protocol: as §1, §2, §3

[4] = target: T4, protein kinases (Homo sapiens, UniProt P00533, DEL752-759); conditions: EGFR(S752-1759del)
T4 construct: purchased Discovery X company (USA), KINOMEscan screening platform
T4 sequence (P00533 with tags, fused parts or gaps DEL752-759): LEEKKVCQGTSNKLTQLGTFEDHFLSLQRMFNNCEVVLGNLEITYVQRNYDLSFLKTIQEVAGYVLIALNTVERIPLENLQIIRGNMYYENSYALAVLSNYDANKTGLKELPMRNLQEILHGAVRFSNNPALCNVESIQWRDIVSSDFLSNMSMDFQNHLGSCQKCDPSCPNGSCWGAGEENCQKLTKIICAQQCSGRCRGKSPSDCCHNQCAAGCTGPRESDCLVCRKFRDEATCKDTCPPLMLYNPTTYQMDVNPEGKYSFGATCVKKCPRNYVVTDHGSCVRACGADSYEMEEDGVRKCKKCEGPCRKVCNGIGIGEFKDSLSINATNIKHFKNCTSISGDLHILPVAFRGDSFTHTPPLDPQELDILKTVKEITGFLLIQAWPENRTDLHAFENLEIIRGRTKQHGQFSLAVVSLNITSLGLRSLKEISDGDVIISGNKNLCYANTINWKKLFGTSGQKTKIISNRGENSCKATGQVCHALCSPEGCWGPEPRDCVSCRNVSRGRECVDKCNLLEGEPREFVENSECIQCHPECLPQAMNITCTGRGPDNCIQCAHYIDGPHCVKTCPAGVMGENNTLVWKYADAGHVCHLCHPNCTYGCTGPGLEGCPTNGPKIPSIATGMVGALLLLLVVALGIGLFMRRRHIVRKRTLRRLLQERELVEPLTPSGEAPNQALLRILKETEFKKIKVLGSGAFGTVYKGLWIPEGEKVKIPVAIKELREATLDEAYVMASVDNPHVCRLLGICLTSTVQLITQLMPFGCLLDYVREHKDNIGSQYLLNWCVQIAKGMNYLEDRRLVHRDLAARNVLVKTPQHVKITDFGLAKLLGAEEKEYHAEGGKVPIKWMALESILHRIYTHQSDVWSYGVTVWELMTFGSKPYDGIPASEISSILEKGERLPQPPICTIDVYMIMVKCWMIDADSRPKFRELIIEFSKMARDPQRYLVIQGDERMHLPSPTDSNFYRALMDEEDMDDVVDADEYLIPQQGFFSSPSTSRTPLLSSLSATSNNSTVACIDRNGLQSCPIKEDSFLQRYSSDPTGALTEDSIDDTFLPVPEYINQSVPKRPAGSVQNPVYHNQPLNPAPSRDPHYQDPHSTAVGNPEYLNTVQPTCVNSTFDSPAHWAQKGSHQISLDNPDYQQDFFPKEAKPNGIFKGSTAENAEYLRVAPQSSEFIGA
Protocol: as §1, §2, §3

[5] = target: T5, protein kinases (Homo sapiens, UniProt P00533, G719S); conditions: EGFR(G719S)
T5 construct: purchased Discovery X company (USA), KINOMEscan screening platform
Protocol: as §1, §2, §3

[6] = target: T6, protein kinases (Homo sapiens, UniProt P04629); conditions: TRKA (NTRK1), read-out: Test compound/solvent control (%)
T6 construct: purchased Discovery X company (USA), KINOMEscan screening platform
Protocol: as §1, §2, §3

[7] = target: T7, protein kinases (Homo sapiens, UniProt P06239); conditions: LCK, read-out: Test compound/solvent control (%)
T7 construct: purchased Discovery X company (USA), KINOMEscan screening platform
Protocol: as §1, §2, §3

[8] = target: T8, protein kinases (Homo sapiens, UniProt P06241); conditions: FYN, read-out: Test compound/solvent control (%)
T8 construct: purchased Discovery X company (USA), KINOMEscan screening platform
Protocol: as §1, §2, §3

[9] = target: T9, protein kinases (Homo sapiens, UniProt P07949); conditions: RET, read-out: Test compound/solvent control (%)
T9 construct: purchased Discovery X company (USA), KINOMEscan screening platform
T9 sequence (P07949 29-1114): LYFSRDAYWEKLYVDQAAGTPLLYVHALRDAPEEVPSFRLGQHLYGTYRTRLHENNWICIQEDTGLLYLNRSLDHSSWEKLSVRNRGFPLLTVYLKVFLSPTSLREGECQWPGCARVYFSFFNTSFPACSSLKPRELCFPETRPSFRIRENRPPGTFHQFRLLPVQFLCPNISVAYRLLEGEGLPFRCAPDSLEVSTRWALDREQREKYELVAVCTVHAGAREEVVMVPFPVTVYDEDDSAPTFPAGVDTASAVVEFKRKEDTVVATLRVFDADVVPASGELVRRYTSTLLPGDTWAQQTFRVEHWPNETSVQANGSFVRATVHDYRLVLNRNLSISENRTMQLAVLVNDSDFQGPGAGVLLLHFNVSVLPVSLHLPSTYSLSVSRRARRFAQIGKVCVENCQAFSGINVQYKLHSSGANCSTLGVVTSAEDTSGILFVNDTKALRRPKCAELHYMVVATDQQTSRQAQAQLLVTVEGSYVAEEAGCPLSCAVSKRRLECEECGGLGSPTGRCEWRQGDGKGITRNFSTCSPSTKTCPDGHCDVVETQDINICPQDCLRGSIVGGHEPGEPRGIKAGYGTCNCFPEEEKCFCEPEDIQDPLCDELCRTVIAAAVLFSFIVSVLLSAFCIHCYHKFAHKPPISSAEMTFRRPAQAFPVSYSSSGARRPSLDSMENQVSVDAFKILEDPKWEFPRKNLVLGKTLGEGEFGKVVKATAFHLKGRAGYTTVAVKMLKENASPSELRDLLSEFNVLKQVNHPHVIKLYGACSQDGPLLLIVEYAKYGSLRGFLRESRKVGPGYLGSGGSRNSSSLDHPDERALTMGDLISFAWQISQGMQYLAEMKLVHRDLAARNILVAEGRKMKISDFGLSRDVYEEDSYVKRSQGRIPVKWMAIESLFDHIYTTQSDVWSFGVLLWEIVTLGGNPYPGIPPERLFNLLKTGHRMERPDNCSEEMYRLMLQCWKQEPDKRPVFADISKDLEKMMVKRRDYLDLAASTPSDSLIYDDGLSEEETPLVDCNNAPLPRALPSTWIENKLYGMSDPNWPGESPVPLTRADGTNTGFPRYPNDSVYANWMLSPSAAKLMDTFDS
Protocol: as §1, §2, §3

[10] = target: T10, protein kinases (Homo sapiens, UniProt P09619); conditions: PDGFRB, read-out: Test compound/solvent control (%)
T10 construct: purchased Discovery X company (USA), KINOMEscan screening platform
T10 sequence (P09619 33-1106): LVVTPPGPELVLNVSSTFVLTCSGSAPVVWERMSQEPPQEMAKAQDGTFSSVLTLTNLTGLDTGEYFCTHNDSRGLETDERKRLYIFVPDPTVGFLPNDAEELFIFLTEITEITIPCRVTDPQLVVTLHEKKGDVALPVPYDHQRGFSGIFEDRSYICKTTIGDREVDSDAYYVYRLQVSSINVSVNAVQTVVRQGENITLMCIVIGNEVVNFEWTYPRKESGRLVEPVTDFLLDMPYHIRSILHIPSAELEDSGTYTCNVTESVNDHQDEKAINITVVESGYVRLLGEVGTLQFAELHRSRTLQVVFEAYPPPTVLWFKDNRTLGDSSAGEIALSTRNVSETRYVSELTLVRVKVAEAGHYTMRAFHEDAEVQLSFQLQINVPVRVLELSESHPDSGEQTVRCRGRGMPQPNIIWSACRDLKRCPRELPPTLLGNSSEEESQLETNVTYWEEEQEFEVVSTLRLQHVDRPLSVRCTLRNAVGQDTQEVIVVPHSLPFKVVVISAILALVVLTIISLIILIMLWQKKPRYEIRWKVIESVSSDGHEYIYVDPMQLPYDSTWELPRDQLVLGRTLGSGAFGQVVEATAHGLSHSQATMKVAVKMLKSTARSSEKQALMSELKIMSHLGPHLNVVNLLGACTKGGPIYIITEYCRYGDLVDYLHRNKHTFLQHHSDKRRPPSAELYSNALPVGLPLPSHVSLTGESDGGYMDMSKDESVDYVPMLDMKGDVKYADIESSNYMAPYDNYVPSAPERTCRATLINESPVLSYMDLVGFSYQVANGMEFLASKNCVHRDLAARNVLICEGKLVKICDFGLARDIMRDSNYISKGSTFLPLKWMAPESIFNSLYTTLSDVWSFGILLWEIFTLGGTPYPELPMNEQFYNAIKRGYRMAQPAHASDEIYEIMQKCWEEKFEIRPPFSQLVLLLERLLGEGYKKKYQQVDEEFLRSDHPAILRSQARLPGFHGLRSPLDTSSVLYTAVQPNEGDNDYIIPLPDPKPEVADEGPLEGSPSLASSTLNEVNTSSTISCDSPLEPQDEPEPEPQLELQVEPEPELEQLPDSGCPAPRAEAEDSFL
Protocol: as §1, §2, §3

[11] = target: T11, protein kinases (Homo sapiens, UniProt P10721, V559D); conditions: KIT(V559D), read-out: Test compound/solvent control (%)
T11 construct: purchased Discovery X company (USA), KINOMEscan screening platform
Protocol: as §1, §2, §3

[12] = target: T12, protein kinases (Homo sapiens, UniProt P22607, G697C); conditions: FGFR3(G697C), read-out: Test compound/solvent control (%)
T12 construct: purchased Discovery X company (USA), KINOMEscan screening platform
T12 sequence (P22607 23-806 G697C): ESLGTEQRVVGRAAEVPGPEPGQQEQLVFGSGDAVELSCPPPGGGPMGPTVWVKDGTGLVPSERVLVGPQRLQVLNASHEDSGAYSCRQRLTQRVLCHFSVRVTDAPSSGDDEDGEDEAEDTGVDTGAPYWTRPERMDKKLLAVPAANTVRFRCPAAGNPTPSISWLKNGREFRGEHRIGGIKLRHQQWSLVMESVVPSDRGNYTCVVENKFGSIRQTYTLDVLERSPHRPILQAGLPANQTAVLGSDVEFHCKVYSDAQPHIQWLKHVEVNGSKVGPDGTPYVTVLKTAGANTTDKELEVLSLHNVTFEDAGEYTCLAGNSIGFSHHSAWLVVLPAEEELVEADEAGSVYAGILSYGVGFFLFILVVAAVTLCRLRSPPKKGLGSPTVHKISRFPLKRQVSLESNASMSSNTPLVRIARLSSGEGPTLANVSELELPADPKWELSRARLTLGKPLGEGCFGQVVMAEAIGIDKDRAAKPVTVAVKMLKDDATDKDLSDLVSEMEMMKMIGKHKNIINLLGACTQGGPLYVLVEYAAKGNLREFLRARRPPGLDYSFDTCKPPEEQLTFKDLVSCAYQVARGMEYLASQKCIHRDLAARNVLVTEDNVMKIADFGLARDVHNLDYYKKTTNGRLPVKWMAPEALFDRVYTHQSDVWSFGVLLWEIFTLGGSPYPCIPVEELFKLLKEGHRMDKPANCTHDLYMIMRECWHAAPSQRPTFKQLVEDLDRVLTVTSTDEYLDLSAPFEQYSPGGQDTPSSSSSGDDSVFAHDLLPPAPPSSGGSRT
Protocol: as §1, §2, §3

[13] = target: T13, protein kinases (Homo sapiens, UniProt P36888, N841I); conditions: FLT3(N841I), read-out: Test compound/solvent control (%)
T13 construct: purchased Discovery X company (USA), KINOMEscan screening platform
T13 sequence (P36888 27-993 N841I): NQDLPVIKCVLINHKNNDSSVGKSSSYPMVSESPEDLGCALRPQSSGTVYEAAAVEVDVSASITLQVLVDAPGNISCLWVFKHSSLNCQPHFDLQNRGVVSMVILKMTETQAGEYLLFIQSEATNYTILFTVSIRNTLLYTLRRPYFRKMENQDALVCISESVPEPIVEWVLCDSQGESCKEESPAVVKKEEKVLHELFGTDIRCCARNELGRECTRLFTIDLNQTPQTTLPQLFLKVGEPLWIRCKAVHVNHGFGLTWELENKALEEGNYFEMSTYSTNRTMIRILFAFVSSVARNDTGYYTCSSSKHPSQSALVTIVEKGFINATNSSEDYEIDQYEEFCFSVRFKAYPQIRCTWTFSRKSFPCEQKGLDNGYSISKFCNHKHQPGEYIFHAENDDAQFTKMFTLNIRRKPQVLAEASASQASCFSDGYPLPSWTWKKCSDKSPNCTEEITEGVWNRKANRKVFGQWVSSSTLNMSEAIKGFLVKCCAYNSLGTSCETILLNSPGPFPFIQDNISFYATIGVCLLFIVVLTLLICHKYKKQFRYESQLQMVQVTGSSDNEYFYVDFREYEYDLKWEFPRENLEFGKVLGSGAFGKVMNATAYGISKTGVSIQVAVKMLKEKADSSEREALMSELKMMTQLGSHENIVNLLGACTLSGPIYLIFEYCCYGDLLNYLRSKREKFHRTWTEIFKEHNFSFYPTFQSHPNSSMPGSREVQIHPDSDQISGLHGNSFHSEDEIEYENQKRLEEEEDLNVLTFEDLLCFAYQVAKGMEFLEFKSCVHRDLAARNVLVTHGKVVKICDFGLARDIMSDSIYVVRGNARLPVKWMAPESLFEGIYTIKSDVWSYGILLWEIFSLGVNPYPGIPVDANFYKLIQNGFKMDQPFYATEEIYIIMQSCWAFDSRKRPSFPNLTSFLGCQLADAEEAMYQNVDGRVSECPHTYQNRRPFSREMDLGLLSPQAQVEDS
Protocol: as §1, §2, §3

[14] = target: T14, protein kinases (Homo sapiens, UniProt Q16288); conditions: TRKC (NTRK3), read-out: Test compound/solvent control (%)
T14 construct: purchased Discovery X company (USA), KINOMEscan screening platform
T14 sequence (Q16288 32-839): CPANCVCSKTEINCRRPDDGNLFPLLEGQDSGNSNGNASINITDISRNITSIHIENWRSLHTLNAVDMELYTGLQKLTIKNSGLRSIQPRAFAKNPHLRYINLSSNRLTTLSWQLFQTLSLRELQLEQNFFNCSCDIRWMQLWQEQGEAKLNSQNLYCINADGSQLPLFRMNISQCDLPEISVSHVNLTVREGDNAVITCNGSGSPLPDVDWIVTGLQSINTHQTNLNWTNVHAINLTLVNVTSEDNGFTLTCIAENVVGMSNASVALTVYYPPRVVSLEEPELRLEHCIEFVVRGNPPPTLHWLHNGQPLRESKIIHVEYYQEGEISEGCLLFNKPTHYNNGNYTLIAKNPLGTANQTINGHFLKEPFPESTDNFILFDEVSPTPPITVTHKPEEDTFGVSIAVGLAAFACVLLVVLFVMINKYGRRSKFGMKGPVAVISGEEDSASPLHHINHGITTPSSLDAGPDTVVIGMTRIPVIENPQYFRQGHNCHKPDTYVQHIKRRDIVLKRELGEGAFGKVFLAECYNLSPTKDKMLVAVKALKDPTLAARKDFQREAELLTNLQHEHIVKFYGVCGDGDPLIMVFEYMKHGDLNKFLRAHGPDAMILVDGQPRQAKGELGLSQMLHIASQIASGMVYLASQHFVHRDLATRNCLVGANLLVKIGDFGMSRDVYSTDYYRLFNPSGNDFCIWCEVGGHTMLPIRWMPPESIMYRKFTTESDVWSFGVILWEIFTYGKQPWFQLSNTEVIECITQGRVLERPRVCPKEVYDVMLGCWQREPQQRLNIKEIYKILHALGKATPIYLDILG
Protocol: as §1, §2, §3

`COCCOc1cc2nccc(Oc3ccc(NC(=O)Nc4cc(C(C)(C)C)n[nH]4)c(Cl)c3)c2cc1NC(C)=O` [Compound 66, N-[4-{4-[3-(5-tert-butyl-2H-pyrazol-3-yl)-ureido]-3-chloro-phenoxy}-7-(2-methoxy-ethoxy)-quinolin-6-yl]-acetamide] showed a remaining binding at 0.001 µM ([1]; 1 nM) of 50%, a remaining binding at 0.01 µM ([1]; 10 nM) of 7.6% and a remaining binding at 1 µM ([1]; 1000 nM) of 0.1%. For the same molecule, the remaining binding at 0.001 µM ([2]; ABL1(H396P)-phosphorylated) was 55%, the remaining binding at 0.01 µM ([2]; ABL1(H396P)-phosphorylated) was 9.7% and the remaining binding at 1 µM ([2]; ABL1(H396P)-phosphorylated) was 0%. It also gave a remaining binding at 0.001 µM ([2]; ABL1(H396P)-unphosphorylated) of 27%, a remaining binding at 0.01 µM ([2]; ABL1(H396P)-unphosphorylated) of 1.8% and a remaining binding at 1 µM ([2]; ABL1(H396P)-unphosphorylated) of 0.05%. The “Test compound/solvent control (%)” value ([3]; 1 nM) was 60%, the “Test compound/solvent control (%)” value ([3]; 10 nM) was 18% and the “Test compound/solvent control (%)” value ([3]; 1000 nM) was 2.8%. For the same molecule, the “Test compound/solvent control (%)” value ([4]; 1 nM) was 90%, the “Test compound/solvent control (%)” value ([4]; 10 nM) was 29% and the “Test compound/solvent control (%)” value ([4]; 1000 nM) was 0%. The “Test compound/solvent control (%)” value ([5]; 1 nM) was 77%, the “Test compound/solvent control (%)” value ([5]; 10 nM) was 18% and the “Test compound/solvent control (%)” value ([5]; 1000 nM) was 0%. For the same molecule, the remaining binding at 0.001 µM ([6]; 1 nM) was 48%, the remaining binding at 0.01 µM ([6]; 10 nM) was 5.5% and the remaining binding at 1 µM ([6]; 1000 nM) was 0.2%. The remaining binding at 0.001 µM ([7]; 1 nM) was 33%, the remaining binding at 0.01 µM ([7]; 10 nM) was 0.65% and the remaining binding at 1 µM ([7]; 1000 nM) was 0.2%. The remaining binding at 0.001 µM ([8]; 1 nM) was 94%, the remaining binding at 0.01 µM ([8]; 10 nM) was 41% and the remaining binding at 1 µM ([8]; 1000 nM) was 0%. It also gave a remaining binding at 0.001 µM ([9]; 1 nM) of 85%, a remaining binding at 0.01 µM ([9]; 10 nM) of 17% and a remaining binding at 1 µM ([9]; 1000 nM) of 0%. For the same molecule, the remaining binding at 0.001 µM ([10]; 1 nM) was 81%, the remaining binding at 0.01 µM ([10]; 10 nM) was 6.2% and the remaining binding at 1 µM ([10]; 1000 nM) was 0%. For the same molecule, the remaining binding at 0.001 µM ([11]; 1 nM) was 82%, the remaining binding at 0.01 µM ([11]; 10 nM) was 18% and the remaining binding at 1 µM ([11]; 1000 nM) was 0%. It also gave a remaining binding at 0.001 µM ([12]; 1 nM) of 81%, a remaining binding at 0.01 µM ([12]; 10 nM) of 54% and a remaining binding at 1 µM ([12]; 1000 nM) of 0.05%. For the same molecule, the remaining binding at 0.001 µM ([13]; 1 nM) was 88%, the remaining binding at 0.01 µM ([13]; 10 nM) was 17% and the remaining binding at 1 µM ([13]; 1000 nM) was 0.25%. It also gave a remaining binding at 0.001 µM ([14]; 1 nM) of 84%, a remaining binding at 0.01 µM ([14]; 10 nM) of 28% and a remaining binding at 1 µM ([14]; 1000 nM) of 0.2%.
